According to PMC12365113 (IBRO Neuroscience Reports, 2025):
Marks after values point to notes of the source that are not given here.

Legend:
[1] = target: BSA protein glycation (Bos taurus, UniProt P02769); experiment: Anti-glycation assay; format: biochemical, Bovine; settings: BSA + dextrose, 9 days at 37 °C, mean ± SD of triplicate
[2] = target: Aβ42 (Homo sapiens, UniProt P05067); experiment: ThT assay of inhibition of Aβ aggregation; format: biochemical
Chain of Aβ42 (P05067 672-713): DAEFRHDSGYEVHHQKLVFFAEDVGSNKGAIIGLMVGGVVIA

Chain of BSA protein glycation (P02769 25-607): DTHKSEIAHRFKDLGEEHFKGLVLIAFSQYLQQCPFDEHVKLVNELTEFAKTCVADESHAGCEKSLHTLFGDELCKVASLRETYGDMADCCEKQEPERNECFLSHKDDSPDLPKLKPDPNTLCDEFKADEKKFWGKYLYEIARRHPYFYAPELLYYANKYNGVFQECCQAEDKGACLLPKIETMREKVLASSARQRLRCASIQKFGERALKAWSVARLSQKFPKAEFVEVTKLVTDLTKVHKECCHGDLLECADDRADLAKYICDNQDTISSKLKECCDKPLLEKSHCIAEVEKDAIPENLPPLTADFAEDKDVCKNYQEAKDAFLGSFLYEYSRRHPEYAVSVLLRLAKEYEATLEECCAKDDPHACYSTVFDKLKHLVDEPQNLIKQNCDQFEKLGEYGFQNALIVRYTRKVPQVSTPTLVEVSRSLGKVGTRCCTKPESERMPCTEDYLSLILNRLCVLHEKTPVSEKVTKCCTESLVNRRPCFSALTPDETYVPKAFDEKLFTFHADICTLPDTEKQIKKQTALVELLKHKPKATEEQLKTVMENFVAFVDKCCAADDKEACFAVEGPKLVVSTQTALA

IC50 [2] | SMILES | Half-maximal inhibitory (IC50) values Protein glycation [1]
– | N=C(N)NN [Aminoguanidine] | 15.27 ± 0.37^b μg/mL
94.7 µM | O=S1(=O)OC(c2ccc(O)cc2)(c2ccc(O)cc2)c2ccccc21 [Phenol Red] | –
